From ChEMBL document CHEMBL1201862, “PubChem BioAssay data set” (2004)
Active and inactive are the calls of the source.

Tests used:
[1] = target: Lysine-specific demethylase 4A (Homo sapiens, UniProt O75164); assay: JMJD2A histone demethylase inhibitors, dose response, selectivity assay for GASC-1 inhibitor project, biochemical, DELFIA europium, cherry-picked samples (AID 488840)
[2] = target: T1, Alkaline phosphatase, tissue-nonspecific isozyme (Homo sapiens, UniProt P05186); assay: human TNAP enzyme inhibitors, SAR follow-up, biochemical, luminescent, dose response (AID 1056)
T1 sequence (P05186 whole entry): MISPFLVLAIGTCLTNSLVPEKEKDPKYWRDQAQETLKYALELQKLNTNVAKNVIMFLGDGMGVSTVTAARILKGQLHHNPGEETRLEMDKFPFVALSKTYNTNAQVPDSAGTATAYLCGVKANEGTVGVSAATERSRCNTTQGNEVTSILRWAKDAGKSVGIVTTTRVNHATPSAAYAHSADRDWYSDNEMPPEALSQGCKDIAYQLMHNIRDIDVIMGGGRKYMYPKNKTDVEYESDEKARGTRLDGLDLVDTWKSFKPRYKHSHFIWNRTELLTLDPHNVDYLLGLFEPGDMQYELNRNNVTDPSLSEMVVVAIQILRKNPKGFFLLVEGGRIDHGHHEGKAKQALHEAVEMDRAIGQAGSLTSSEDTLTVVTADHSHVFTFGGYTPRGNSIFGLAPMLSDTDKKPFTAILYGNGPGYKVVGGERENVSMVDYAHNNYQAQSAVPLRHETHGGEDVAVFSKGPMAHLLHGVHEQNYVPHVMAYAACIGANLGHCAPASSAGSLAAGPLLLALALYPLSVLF

[3] = target: T1, Alkaline phosphatase, tissue-nonspecific isozyme; assay: TNAP enzyme activators, dose response, selectivity assay for mouse IAP activator project, biochemical, TNAP isozyme, mouse IAP uHTS hits (AID 488880); assay type: functional
[4] = target: T2, RNA-binding protein pos-1 (Caenorhabditis elegans, UniProt G5EF15); assay: inhibitors of POS-1/mex-3 RNA binding, dose response, biochemical, fluorescence polarization (AID 1964);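 further: purified POS-1 fused to maltose binding protein made in E. coli; potency of compounds blocking POS-1 binding to fluorescent RNA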
T2 sequence (G5EF15 whole entry): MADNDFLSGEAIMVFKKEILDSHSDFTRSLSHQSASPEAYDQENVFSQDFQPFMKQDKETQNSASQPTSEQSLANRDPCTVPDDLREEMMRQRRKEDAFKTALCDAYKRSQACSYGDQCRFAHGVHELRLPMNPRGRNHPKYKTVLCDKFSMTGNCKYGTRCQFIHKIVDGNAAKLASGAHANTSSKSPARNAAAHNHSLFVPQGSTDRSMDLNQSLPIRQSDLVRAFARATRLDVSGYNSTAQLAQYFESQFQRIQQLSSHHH

[5] = target: T3, Zinc finger protein mex-5 (Caenorhabditis elegans, UniProt Q9XUB2); assay: MEX-5/TCR-2 RNA interaction inhibitors, dose response, biochemical, C. elegans, fluorescence polarization (AID 1960)
T3 sequence (Q9XUB2 whole entry): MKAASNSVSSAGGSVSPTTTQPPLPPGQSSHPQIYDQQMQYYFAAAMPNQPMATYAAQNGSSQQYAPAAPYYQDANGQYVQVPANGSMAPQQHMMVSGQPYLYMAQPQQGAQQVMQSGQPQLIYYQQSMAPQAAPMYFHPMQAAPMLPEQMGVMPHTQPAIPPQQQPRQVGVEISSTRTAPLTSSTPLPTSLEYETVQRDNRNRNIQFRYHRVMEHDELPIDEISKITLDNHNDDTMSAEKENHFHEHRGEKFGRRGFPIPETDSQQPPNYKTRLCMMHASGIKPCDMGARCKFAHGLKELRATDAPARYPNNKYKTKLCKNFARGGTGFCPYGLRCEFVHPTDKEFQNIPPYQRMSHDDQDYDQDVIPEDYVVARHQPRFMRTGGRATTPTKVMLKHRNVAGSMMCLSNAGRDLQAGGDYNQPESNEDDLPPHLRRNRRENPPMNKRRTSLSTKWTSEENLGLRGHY

[6] = target: T4, Intestinal-type alkaline phosphatase (Mus musculus, UniProt P24822); assay: mouse intestinal alkaline phosphatase activators, dose response, biochemical, luminescence, uHTS hits (AID 488783); assay type: functional
[7] = target: T5, Intestinal-type alkaline phosphatase (Homo sapiens, UniProt P09923); assay: activation of human intestinal alkaline phosphatase – biochemical, dose response (AID 488873); assay type: functional
[8] = target: T5, Intestinal-type alkaline phosphatase; assay: inhibition of human intestinal alkaline phosphatase – biochemical, dose response (AID 488876); assay type: functional
[9] = target: T1, Alkaline phosphatase, tissue-nonspecific isozyme; assay: TNAP enzyme inhibition by screening hits, dose response, selectivity assay for mouse IAP inhibitor project, biochemical, human TNAP, uHTS hits (AID 488906); assay type: functional
[10] = target: T4, Intestinal-type alkaline phosphatase; assay: PubChem AID 488785; assay type: functional
[11] = target: Voltage-dependent T-type calcium channel subunit alpha-1H (Homo sapiens, UniProt O95180); assay: Cav3.2 T-type channel blockers, cell-based, SynthLib3 library, HEK293 Cav3.2, fluorescence (AID 493041); assay type: functional
[12] = target: T6, Nuclear receptor subfamily 0 group B member 1 (Homo sapiens, UniProt P51843); assay type: functional, cell-based;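 further: HEK293T cells transfected with SF-1 and DAX-1 plus StAR promoter luciferase reporter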
T6 sequence (P51843 whole entry): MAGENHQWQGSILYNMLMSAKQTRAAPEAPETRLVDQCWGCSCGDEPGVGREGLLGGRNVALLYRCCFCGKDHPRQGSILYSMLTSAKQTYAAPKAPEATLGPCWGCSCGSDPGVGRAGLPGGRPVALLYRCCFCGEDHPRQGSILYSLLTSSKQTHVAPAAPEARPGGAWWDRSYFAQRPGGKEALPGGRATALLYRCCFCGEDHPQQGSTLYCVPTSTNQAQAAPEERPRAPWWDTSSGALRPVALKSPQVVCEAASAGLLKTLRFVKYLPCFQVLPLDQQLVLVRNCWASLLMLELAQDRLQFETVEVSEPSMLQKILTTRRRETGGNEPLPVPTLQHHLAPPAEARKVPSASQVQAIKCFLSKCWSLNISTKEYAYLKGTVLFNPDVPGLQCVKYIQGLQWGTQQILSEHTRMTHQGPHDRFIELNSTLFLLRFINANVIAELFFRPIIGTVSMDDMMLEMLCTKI

[13] = target: T5, Intestinal-type alkaline phosphatase; assay: human intestinal alkaline phosphatase activators, dose response, biochemical, luminescence, uHTS hits (AID 463120); assay type: functional
[14] = cells; assay type: functional, cell-based
[15] = target: T4, Intestinal-type alkaline phosphatase; assay: PubChem AID 488875; assay type: functional
[16] = target: T1, Alkaline phosphatase, tissue-nonspecific isozyme; assay: TNAP enzyme activators, dose response, selectivity assay for human IAP activator project, biochemical, TNAP isozyme, human IAP uHTS hits (AID 488886); assay type: functional;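 further: potency of compounds raising TNAP activity as a selectivity check on IAP activators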
[17] = target: T5, Intestinal-type alkaline phosphatase; assay: human IAP activators, dose response, biochemical, luminescent, uHTS hits, set 2 (AID 488817); assay type: functional;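 further: potency of activators that raise enzyme activity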
[18] = target: Nucleotide-binding oligomerization domain-containing protein 2 (Homo sapiens, UniProt Q9HC29); assay: NOD2 signaling inhibitors, analog potency, SAR follow-up, cell-based, set 3 (AID 2799); assay type: functional
[19] = tested on: HEK293; assay: SAR analysis of compounds that are cytotoxic to HEK293 - Set 3. [Related pubchem assays (depositor defined):AID1575, AID1578, AID1848, AID1849, AID2001, AID2333, AID2334, AID2335, AID2337, AID2469]; assay type: functional, cell-based; conditions: Homo sapiens
[20] = target: Tumor necrosis factor (Homo sapiens, UniProt P01375); assay: TNFa-triggered NF-kB activation inhibitors, SAR follow-up, cell-based, set 3 (AID 2801); assay type: functional
[21] = target: T7, Nucleotide-binding oligomerization domain-containing protein 1 (Homo sapiens, UniProt Q9Y239); assay: SAR analysis of compounds that inhibit NOD1 - Set 3. [Related pubchem assays (depositor defined):AID1566, AID1575, AID1578, AID1849, AID1852, AID2333, AID2335, AID2466]; assay type: functional
T7 sequence (Q9Y239 whole entry): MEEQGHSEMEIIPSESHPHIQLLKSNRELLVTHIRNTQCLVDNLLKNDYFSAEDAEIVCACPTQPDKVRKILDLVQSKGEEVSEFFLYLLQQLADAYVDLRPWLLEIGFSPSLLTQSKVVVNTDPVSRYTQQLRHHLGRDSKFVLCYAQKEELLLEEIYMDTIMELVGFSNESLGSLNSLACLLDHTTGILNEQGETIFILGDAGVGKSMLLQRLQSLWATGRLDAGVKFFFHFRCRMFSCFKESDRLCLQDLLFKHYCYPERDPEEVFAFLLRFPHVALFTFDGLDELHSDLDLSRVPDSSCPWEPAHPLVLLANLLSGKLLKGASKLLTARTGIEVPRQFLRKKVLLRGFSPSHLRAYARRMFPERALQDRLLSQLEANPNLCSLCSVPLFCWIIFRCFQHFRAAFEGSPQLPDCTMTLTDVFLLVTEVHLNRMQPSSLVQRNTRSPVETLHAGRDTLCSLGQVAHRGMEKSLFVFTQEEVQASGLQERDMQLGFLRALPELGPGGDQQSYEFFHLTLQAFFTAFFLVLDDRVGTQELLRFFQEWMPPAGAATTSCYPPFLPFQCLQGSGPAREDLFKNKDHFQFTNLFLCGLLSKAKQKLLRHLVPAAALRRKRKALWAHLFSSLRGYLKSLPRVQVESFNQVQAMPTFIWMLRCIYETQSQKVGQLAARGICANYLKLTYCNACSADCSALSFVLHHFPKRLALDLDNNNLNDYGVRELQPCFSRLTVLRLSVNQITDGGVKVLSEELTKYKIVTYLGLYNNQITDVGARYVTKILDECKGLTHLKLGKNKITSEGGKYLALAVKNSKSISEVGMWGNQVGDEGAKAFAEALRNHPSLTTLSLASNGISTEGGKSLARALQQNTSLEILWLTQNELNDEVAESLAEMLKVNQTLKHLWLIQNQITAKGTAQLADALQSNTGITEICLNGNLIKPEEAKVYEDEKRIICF

[22] = human group III sPLA2 inhibitors, dose response, biochemical, QFRET, IC50 (AID 743457);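 further: green fluorescence rise as the enzyme cleaves BODIPY PC-A2 in liposomes; potency for inhibition of the enzyme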
[23] = target: T1, Alkaline phosphatase, tissue-nonspecific isozyme; assay: inhibition of tissue-nonspecific alkaline phosphatase – biochemical, dose response (AID 488882); assay type: functional
[24] = target: T5, Intestinal-type alkaline phosphatase; assay: Dose Response confirmation of uHTS hits from a small molecule inhibitors of human intestinal alkaline phosphatase via a luminescent assay. [Related pubchem assays (depositor defined):AID2544, AID2574]; assay type: functional
[25] = target: T4, Intestinal-type alkaline phosphatase; assay: PubChem AID 488874; assay type: functional
[26] = target: T5, Intestinal-type alkaline phosphatase; assay: human IAP inhibitors, dose response, biochemical, luminescent, uHTS hits, set 2 (AID 488793); assay type: functional
[27] = target: Peroxisome proliferator-activated receptor gamma/Nuclear receptor coactivator 2 (Homo sapiens, UniProt P37231); assay: (§1) TR-FRET dose response biochemical High Throughput Screening assay for agonists of the steroid receptor coactivator 2 (SRC-2) recruitment by the peroxisome proliferator-activated receptor gamma (PPAR gamma): non-selective agonists. [Related pubchem assays: 1297, 1032 ]; assay type: functional
[28] = tested on: H9c2; assay: cells; assay type: functional, cell-based; conditions: Rattus norvegicus, H9c2, Myocardium;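 further: confirmatory concentration-response retest of ultra-high-throughput screening hits for modulation of myocardial damage; cell death induced by hydrogen peroxide oxidative stress; compound pretreatment for 60 min then peroxide exposure for 2 h; potency is for protecting the cells against peroxide damage rather than for killing them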
[29] = target: Peroxisome proliferator-activated receptor gamma/Nuclear receptor coactivator 1 (Homo sapiens, UniProt P37231); assay: as §1, with “1 (SRC-1)” for “2 (SRC-2)”, “assays (depositor defined):AID1300, AID1808, AID504735, AID631]” for “assays: 1297, 1032 ]”; assay type: protein assay
[30] = target: Peroxisome proliferator-activated receptor gamma/Nuclear receptor coactivator 3 (Homo sapiens, UniProt P37231); assay: as §1, with “3 (SRC-3)” for “2 (SRC-2)”, “1301 (Confirmation screen.), 1048 (Primary screen.)]” for “1297, 1032 ]”; assay type: functional

T4 sequence (P24822 whole entry): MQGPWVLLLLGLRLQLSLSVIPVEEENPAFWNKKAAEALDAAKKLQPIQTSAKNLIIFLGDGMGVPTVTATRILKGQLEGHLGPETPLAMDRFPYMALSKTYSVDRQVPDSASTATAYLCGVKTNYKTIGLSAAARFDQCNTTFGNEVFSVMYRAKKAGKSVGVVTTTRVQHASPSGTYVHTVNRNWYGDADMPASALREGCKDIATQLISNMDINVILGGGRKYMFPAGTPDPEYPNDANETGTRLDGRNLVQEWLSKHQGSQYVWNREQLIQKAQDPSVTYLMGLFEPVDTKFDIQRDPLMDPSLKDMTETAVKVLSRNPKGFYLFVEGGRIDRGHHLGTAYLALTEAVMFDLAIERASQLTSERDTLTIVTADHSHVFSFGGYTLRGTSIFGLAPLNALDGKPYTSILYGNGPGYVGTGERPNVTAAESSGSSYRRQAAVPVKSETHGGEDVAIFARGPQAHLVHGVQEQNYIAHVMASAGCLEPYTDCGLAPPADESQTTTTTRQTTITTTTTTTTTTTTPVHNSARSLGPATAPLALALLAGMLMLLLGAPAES
T5 sequence (P09923 whole entry): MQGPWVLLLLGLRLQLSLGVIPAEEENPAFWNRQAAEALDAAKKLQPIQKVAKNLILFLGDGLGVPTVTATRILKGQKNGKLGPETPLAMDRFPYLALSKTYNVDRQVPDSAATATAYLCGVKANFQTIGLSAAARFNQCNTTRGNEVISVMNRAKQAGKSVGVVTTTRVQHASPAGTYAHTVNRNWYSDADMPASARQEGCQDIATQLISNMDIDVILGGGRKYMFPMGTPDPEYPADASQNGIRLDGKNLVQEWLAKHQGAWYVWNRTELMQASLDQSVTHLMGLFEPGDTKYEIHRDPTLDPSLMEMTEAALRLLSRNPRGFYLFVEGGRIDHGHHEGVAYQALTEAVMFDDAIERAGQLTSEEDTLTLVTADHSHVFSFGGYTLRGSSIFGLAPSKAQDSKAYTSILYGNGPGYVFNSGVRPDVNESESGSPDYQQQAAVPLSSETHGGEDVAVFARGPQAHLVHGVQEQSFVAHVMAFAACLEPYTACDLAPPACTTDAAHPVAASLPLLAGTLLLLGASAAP
Chain of Tumor necrosis factor (P01375 whole entry, the tested form may be a part): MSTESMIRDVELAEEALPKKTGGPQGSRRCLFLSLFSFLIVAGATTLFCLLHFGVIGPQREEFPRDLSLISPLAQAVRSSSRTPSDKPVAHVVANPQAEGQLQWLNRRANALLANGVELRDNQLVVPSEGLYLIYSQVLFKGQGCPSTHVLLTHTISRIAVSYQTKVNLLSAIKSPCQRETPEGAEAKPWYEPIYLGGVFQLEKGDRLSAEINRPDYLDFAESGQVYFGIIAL
Chain of Voltage-dependent T-type calcium channel subunit alpha-1H (O95180 whole entry): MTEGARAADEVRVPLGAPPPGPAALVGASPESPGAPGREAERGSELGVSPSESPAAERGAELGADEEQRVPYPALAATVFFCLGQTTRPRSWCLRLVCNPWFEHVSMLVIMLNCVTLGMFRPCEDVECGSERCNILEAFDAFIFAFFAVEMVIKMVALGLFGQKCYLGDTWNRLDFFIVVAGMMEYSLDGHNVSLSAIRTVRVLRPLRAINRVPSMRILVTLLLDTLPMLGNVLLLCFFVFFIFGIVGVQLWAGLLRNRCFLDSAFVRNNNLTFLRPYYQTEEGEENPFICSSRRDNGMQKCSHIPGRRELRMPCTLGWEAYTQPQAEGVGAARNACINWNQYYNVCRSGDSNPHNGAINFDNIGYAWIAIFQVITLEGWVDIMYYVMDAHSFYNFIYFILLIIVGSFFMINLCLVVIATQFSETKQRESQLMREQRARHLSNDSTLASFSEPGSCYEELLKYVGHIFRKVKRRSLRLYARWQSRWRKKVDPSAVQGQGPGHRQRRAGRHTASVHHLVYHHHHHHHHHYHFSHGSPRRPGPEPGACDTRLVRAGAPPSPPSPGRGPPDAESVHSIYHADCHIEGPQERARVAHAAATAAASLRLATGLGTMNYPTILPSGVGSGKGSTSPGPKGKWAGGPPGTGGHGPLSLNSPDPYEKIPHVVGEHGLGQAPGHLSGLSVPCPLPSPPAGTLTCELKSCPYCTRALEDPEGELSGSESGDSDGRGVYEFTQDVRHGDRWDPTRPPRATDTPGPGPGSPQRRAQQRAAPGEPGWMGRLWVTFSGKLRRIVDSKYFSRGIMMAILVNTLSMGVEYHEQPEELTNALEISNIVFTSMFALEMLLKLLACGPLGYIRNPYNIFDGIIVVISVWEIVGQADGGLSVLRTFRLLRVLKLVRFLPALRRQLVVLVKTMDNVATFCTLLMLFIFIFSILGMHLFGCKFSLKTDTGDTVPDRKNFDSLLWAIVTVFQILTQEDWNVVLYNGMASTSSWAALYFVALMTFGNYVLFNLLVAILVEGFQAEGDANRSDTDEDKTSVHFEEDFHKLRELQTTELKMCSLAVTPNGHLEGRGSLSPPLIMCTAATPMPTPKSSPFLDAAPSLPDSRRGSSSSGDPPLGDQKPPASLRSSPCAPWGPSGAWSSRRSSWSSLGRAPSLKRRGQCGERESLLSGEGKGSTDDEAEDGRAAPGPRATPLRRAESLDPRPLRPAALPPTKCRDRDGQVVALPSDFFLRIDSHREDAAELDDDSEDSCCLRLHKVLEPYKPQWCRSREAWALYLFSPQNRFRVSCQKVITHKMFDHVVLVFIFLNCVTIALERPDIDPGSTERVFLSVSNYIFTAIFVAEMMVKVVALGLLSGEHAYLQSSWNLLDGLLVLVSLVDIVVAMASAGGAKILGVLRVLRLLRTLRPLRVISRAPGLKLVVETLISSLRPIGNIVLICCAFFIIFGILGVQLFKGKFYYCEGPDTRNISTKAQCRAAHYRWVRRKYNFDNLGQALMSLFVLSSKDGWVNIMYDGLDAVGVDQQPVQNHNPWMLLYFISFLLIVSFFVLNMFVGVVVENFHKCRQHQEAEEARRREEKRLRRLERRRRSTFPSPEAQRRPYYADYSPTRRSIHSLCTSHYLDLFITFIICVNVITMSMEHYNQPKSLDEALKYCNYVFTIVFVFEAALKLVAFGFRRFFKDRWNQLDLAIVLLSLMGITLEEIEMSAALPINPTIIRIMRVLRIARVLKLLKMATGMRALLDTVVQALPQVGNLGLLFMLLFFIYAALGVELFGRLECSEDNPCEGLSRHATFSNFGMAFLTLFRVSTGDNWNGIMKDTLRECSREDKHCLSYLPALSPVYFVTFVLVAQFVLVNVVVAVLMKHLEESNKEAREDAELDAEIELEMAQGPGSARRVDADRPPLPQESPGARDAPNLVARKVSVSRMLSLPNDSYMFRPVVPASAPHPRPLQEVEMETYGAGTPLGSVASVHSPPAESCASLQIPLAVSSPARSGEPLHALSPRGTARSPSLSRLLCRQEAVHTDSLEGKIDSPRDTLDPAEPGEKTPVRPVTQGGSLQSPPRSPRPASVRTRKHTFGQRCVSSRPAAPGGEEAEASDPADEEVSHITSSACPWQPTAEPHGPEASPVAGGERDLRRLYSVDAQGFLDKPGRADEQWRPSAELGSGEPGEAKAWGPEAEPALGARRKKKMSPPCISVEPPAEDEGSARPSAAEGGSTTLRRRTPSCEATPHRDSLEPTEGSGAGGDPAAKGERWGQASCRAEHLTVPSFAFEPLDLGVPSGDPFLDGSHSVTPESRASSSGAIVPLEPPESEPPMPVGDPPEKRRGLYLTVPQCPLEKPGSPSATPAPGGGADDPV
Chain of Lysine-specific demethylase 4A (O75164 whole entry): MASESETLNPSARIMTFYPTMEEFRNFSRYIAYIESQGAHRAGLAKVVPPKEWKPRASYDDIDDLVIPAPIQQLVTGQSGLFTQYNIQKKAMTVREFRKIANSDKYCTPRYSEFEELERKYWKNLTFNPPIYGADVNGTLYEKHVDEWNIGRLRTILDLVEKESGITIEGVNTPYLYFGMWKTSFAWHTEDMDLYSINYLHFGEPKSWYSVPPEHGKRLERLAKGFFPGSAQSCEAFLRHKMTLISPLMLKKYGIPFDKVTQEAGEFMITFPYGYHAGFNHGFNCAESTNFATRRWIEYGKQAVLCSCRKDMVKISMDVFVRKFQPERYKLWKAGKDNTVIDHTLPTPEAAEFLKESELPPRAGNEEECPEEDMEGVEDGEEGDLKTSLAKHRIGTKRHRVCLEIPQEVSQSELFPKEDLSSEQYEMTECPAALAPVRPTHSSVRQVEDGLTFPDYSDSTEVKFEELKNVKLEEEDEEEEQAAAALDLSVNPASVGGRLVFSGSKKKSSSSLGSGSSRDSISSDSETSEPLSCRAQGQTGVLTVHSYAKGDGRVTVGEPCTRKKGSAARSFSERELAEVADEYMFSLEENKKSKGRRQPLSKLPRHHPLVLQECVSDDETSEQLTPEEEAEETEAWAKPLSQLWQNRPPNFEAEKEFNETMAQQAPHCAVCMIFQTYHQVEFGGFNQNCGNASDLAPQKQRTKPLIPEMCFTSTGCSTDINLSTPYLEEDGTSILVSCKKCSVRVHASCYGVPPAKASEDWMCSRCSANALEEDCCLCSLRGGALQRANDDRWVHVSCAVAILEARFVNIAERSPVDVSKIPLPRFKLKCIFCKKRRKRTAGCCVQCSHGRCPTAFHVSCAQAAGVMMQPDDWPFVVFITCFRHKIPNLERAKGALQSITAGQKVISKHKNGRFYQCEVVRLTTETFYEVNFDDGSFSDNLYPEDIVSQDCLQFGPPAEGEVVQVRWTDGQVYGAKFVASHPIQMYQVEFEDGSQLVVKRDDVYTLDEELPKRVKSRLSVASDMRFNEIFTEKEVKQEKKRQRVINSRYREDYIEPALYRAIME

For `Cc1cc(C(=O)Nc2sc3c(c2C#N)CCC(C)C3)no1` (stereo not given), the AC50 [1] was > 60 µM (inactive).
With `COc1ccc(OC)c(S(=O)(=O)Nc2ccc(O)c(Sc3nc[nH]n3)c2)c1` the IC50 [2] was 13.1 µM (active), the EC50 [3] was 62.1 µM (active) and the EC50 [4] was 11.5 µM (active). The EC50 [5] was 17.7 µM (inconclusive), the EC50 [6] was 66.9 µM (active) and the EC50 [7] was 74.7 µM (active).
With `COc1ccc(CN2C3CCCC2CC(NC(=O)Nc2cccc(C)c2)C3)cc1` (stereo not given) the IC50 [8] was 22.7 µM (active), the IC50 [9] was 32.2 µM (active) and the IC50 [10] was 11 µM (active).
With `CCC(C)CN1CC2CCC(NC(=O)c3cc(Cl)cc(Cl)c3)C2C1` (stereo not given) the EC50 [11] was 9.4 µM (active).
In the case of `CCc1ccc(/C=N/Nc2[nH]cnc3ncnc2-3)cc1`, the IC50 [12] is reported as 2.09 µM (active), the EC50 [13] is reported as 6.62 µM (active) and the IC50 [14] is reported as > 67.5 µM (inactive). The EC50 [15] was > 100 µM (inactive), the EC50 [16] was 17.7 µM (active) and the EC50 [17] was 12.5 µM (active).
For `Nc1nc2ccccc2n1S(=O)(=O)c1ccc(OC(F)(F)F)cc1`, the IC50 [18] was > 20 µM (inactive), the IC50 [19] was > 20 µM (inactive) and the IC50 [20] was > 20 µM (inactive). The IC50 [21] was 8.94 µM (active).
In the case of `CCN(CC)c1ccc(N=Nc2nn(C)c(C)c2[N+](=O)[O-])cc1`, the IC50 [22] is reported as > 122 µM (inactive), the IC50 [23] is reported as 47.1 µM (active) and the IC50 [24] is reported as 13 µM (inactive). The IC50 [25] was 35.3 µM (active) and the IC50 [26] was 52.5 µM (active).
For `O=C(Nc1cccnc1)c1sc(Nc2ccccc2)nc1-c1ccccc1`, the EC50 [27] was 3.26 µM (active), the IC50 [28] was > 79 µM (inactive) and the EC50 [29] was 2.72 µM (active). For the same compound, the EC50 [30] was 40 µM (not active).
